# From patent US20080318954A1, “Compounds” (Cyclacel Limited, priority 2004, published 2008)
# Legend:
# [1] = system: β-catenin-LEF/TCF transcriptional activity in HEK293 cells; assay: β-Catenin-LEF/TCF regulated reporter gene assay; type: cell-based, human; conditions: LiCl
# Text: Furthermore, the effect of compound XIV on the β-catenin-dependent transcriptional activity, as measured in a luciferase based reporter gene assay, was studied.
# HEK293 cells were transfected with either β-catenin-LEF/TCF-sensitive or β-catenin-LEF/TCF-insensitive reporter vector (Upstate Biotechnology, Inc.) using Lipofectamine Plus reagent (GibcoBRL) according to the manufacturer's instructions. The next day, cells were trypsinized, washed into serum-free medium, counted and seeded at 40,000 cells per well in a 96-well plate. Subsequent to cell attachment, LiCl or GSK-3 inhibitor compound were added to the medium to the required concentrations. Control cells were DMSO vehicle treated. 16 h after inhibitor addition, cells were analyzed for luciferase activity using the Steady-Glo Luciferase assay system (Promega) according to the manufacturer's instructions.
# [2] = system: glycogen synthase activity in 3T3 mouse adipocytes; assay: Glycogen synthase (GS) assay in 3T3 mouse adipocytes; type: cell-based; conditions: 3T3 cells, 40 mM
# Protocol: Mouse pre-adipocytes 3T3-F442A were seeded at 9×10^5 cells per 10 cm dish in DMEM 10% FCS, containing penicillin/streptomycin. When 90% confluent, the same medium was supplemented with 1 μg/mL insulin. After 3-5 days (when most cells were differentiated) insulin was removed and 4 days later the cells were ready to use.
# (§1) Cells on 10 cm dishes (Human Embryonic Kidney (HEK) 293 cells, L6 rat myocytes, or 3T3 mouse adipocytes) were treated with different concentrations of GSK3-inhibitors or DMSO vehicle for 90 min. Incubation medium was removed and cells were washed with ice-cold phosphate-buffered saline (PBS) prior to lysis on ice in 50 mM HEPES, pH 7.5, 10 mM EDTA, 100 mM NaF, 5 mM DTT, protease inhibitor cocktail (Sigma). After a freeze/thaw cycle the samples are sonicated for 10 sec and centrifuged at 15,000 g for 10 min at 4° C. Lysate supernatants were snap-frozen on liquid nitrogen and stored at −80° C. Lysates were assayed for glycogen synthase activity in buffer (50 mM Tris-HCl, pH 7.8, 20 mM EDTA, 25 mM NaF, 5 mM DTT, 1% glycogen, 0.3 mM UDP-glucose and 0.06 μCi of [^14C]-UDP-glucose in the presence of 0.1 or 10 mM glucose-6-phosphate. The reaction was carried out for 30 min at 30° C. 70 μL of the reaction mixture (total volume 90 μL) were transferred to a GFC 96-well filter plate (bottom sealed with foil), containing 140 μL 96% ethanol. The GFC plate was incubated for 1 h on ice and than washed with 66% ethanol. To each well 100 μL scintillant liquid was added and the radioactivity of the samples was measured using a scintillation counter (Topcount, HP). Data are expressed as -fold increase in glycogen synthase activity ratios over those of control samples.
# [3] = system: glycogen synthase activity in HEK293 cells; assay: Glycogen synthase (GS) assay in HEK293 cells; type: cell-based, human; conditions: HEK293 cells, 40 mM
# Protocol: as §1
structure (smiles),measurement,setting,value
"[Cl-].[Li+] [LiCl, reference compound]",β-catenin-dependent luciferase activity,[1],massive induction
same,Fold induction of GS activity,[2],2 fold
same,Fold induction of GS activity,[3],3.7 fold
